These results are taken from patent publication US10865191B2, “Heterocyclic compounds useful as modulators of TNF alpha” (BRISTOL-MYERS SQUIBB COMPANY, priority 2015, dated 2020).

Bounds are passed on as bounds.

Sequence of TNFα (P01375 77-233 limits assumed): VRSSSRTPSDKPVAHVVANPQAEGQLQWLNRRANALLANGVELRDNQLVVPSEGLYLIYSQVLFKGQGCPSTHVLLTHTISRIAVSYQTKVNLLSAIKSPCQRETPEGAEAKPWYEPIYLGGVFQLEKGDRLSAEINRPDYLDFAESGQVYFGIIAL

The first assay addresses TNFα (Homo sapiens, UniProt P01375). The assay can be described thus: TNF induced HEK-Blue assay (NF-kB-driven secreted alkaline phosphatase reporter). Format: cell-based. Conditions: TNF induced HEK-Blue assay IC50 value, TNFα 0.5 ng/mL, HEK-Blue-CD40L cells, 18 h. In outline:
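HEK-Blue-CD40L cells (NF-kB-driven SEAP reporter), 20,000/well, added after 30 min pre-incubation of compound (0.004–25 μM final) with TNFα 0.5 ng/mL final at 37 °C; 18 h incubation. SEAP read with QUANTI-Blue at 620 nm; IC50 from 4-parameter logistic fit, normalized to unstimulated and stimulated DMSO controls.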
Molecule `Cc1nc2cc(F)c(-c3cnc(C(C)(C)O)nc3)nc2c(N[C@H](C)c2cc(C#N)ccc2F)c1Cl` [Example 586, (R)-3-(1-((3-chloro-7-fluoro-6-(2-(2-hydroxypropan-2-yl)pyrimidin-5-yl)-2-methyl-1,5-naphthyridin-4-yl)amino)ethyl)-4-fluorobenzonitrile] showed an IC50 of under 1000 nM.

The same assay, now with this note: TNFα 0.5 ng/mL, HEK-Blue-CD40L cells, 18 h; read-out: TNF induced HEK-Blue assay IC50 value.
In the case of `C[C@H](Nc1c(Cl)cnc2ccc(-c3cnc(C(C)(C)O)nc3)cc12)[C@H]1CCCN(c2cncnc2)C1` [Example 567, 2-(5-(3-chloro-4-(((S)-1-((S)-1-(pyrimidin-5-yl)piperidin-3-yl)ethyl)amino)quinolin-6-yl)pyrimidin-2-yl)propan-2-ol], the IC50 lay in the range of 1000 to 10000 nM.

Consider `C[C@@H](Nc1c(Cl)cnc2ccc(-c3ccc(C4(NCCO)CCC4)cc3)cc12)c1ccccc1F` [Example 568, (R)-2-((1-(4-(3-chloro-4-((1-(2-fluorophenyl)ethyl)amino)quinolin-6-yl)phenyl)cyclobutyl)amino)ethan-1-ol], for which the 50% inhibitory concentration (IC50) is under 1000 nM.

With `C[C@@H](Nc1c(Cl)cnc2ccc(-c3ccc(CNC(N)=O)cc3)cc12)c1ccccc1F` [Example 569, (R)-1-(4-(3-chloro-4-((1-(2-fluorophenyl)ethyl)amino)quinolin-6-yl)benzyl)urea], the IC50 was under 1000 nM.

On to `Cc1nc2cc(F)c(-c3cnc(C(C)(C)O)nc3)nc2c(N[C@H](C)c2cc(C(O)CO)ccc2F)c1Cl` (stereo partly drawn) [Example 570, 1-(3-((R)-1-((3-chloro-7-fluoro-6-(2-(2-hydroxypropan-2-yl)pyrimidin-5-yl)-2-methyl-1,5-naphthyridin-4-yl)amino)ethyl)-4-fluorophenyl)ethane-1,2-diol], for which the IC50 was in the range of 1000 to 10000 nM.

As to `C=Cc1cccc([C@@H](C)Nc2c(Cl)c(C)nc3cc(F)c(-c4cnc(C(C)(C)O)nc4)nc23)c1` [Example 571, (R)-2-(5-(7-chloro-3-fluoro-6-methyl-8-((1-(3-vinylphenyl)ethyl)amino)-1,5-naphthyridin-2-yl)pyrimidin-2-yl)propan-2-ol], the IC50 was under 1000 nM.

Regarding `C=Cc1ccc(F)c([C@@H](C)Nc2c(Cl)c(C)nc3cc(F)c(-c4cnc(C(C)(C)O)nc4)nc23)c1` [Example 572, (R)-2-(5-(7-chloro-3-fluoro-8-((1-(2-fluoro-5-vinylphenyl)ethyl)amino)-6-methyl-1,5-naphthyridin-2-yl)pyrimidin-2-yl)propan-2-ol], the half-inhibitory concentration (IC50) fell in the range of 1000 to 10000 nM.

As to `C[C@@H](Nc1c(Cl)cnc2cc(F)c(-c3cnc(C(C)(C)O)nc3)nc12)c1cccc(C(O)CO)c1` (stereo partly drawn) [Example 573, 1-(3-((R)-1-((3-chloro-7-fluoro-6-(2-(2-hydroxypropan-2-yl)pyrimidin-5-yl)-1,5-naphthyridin-4-yl)amino)ethyl)phenyl)ethane-1,2-diol], the IC50 is under 1000 nM.

As to `C=Cc1cccc([C@@H](C)Nc2c(Cl)cnc3cc(F)c(-c4cnc(C(C)(C)O)nc4)nc23)c1` [Example 574, (R)-2-(5-(7-chloro-3-fluoro-8-((1-(3-vinylphenyl)ethyl)amino)-1,5-naphthyridin-2-yl)pyrimidin-2-yl)propan-2-ol], the IC50 is under 1000 nM.

Take `Cc1nc2cc(F)c(-c3cnc(C(C)(C)O)nc3)nc2c(N[C@H](C)c2cccc(C(O)CO)c2)c1Cl` (stereo partly drawn) [Example 575, 1-(3-((R)-1-((3-chloro-7-fluoro-6-(2-(2-hydroxypropan-2-yl)pyrimidin-5-yl)-2-methyl-1,5-naphthyridin-4-yl)amino)ethyl)phenyl)ethane-1,2-diol]: the IC50 is under 1000 nM.

On to `C[C@@H](Nc1c(Cl)cnc2cc(F)c(-c3cnc(C(C)(C)O)nc3)nc12)c1cccc(CO)c1` [Example 576, (R)-2-(5-(7-chloro-3-fluoro-8-((1-(3-(hydroxymethyl)phenyl)ethyl)amino)-1,5-naphthyridin-2-yl)pyrimidin-2-yl)propan-2-ol], for which the half-inhibitory concentration (IC50) was under 1000 nM.

`Cc1nc2cc(F)c(-c3cnc(C(C)(C)O)nc3)nc2c(N[C@H](C)c2cc(CO)ccc2F)c1Cl` [Example 577, (R)-2-(5-(7-chloro-3-fluoro-8-((1-(2-fluoro-5-(hydroxymethyl)phenyl)ethyl)amino)-6-methyl-1,5-naphthyridin-2-yl)pyrimidin-2-yl)propan-2-ol]: the IC50 was under 1000 nM.

As to `Cc1nc2cc(F)c(-c3cnc(C(C)(C)O)nc3)nc2c(N[C@H](C)c2cccc(CO)c2)c1Cl` [Example 578, (R)-2-(5-(7-chloro-3-fluoro-8-((1-(3-(hydroxymethyl)phenyl)ethyl)amino)-6-methyl-1,5-naphthyridin-2-yl)pyrimidin-2-yl) propan-2-ol], the IC50 is under 1000 nM.

On to `C[C@@H](Nc1c(Cl)cnc2cc(F)c(-c3cnc(C(C)(C)O)nc3)nc12)c1cc(C(=O)O)ccc1F` [Example 579, (R)-3-(1-((3-chloro-7-fluoro-6-(2-(2-hydroxypropan-2-yl)pyrimidin-5-yl)-1,5-naphthyridin-4-yl)amino)ethyl)-4-fluorobenzoic acid], for which the concentration for half-maximal inhibition (IC50) is 1000 to 10000 nM.

As for `Cc1nc2cc(F)c(-c3cnc(C(C)(C)O)nc3)nc2c(N[C@H](C)c2cccc(C(N)=O)c2)c1Cl` [Example 580, (R)-3-(1-((3-chloro-7-fluoro-6-(2-(2-hydroxypropan-2-yl)pyrimidin-5-yl)-2-methyl-1,5-naphthyridin-4-yl)amino)ethyl)benzamide], the 50% inhibitory concentration (IC50) was under 1000 nM.

On to `C[C@@H](Nc1c(Cl)cnc2cc(F)c(-c3cnc(C(C)(C)O)nc3)nc12)c1cccc(C(N)=O)c1` [Example 581, (R)-3-(1-((3-chloro-7-fluoro-6-(2-(2-hydroxypropan-2-yl)pyrimidin-5-yl)-1,5-naphthyridin-4-yl)amino)ethyl)benzamide], for which the IC50 was 10000 to 25000 nM.

Regarding `Cc1nc2cc(F)c(-c3cnc(C(C)(C)O)nc3)nc2c(N[C@H](C)c2cc(C(=O)O)ccc2F)c1Cl` [Example 582, (R)-3-(1-((3-chloro-7-fluoro-6-(2-(2-hydroxypropan-2-yl)pyrimidin-5-yl)-2-methyl-1,5-naphthyridin-4-yl)amino)ethyl)-4-fluorobenzoic acid], the IC50 fell in the range of 10000 to 25000 nM.

On to `C[C@@H](Nc1c(Cl)cnc2cc(F)c(-c3cnc(C(C)(C)O)nc3)nc12)c1cc(C(N)=O)ccc1F` [Example 583, (R)-3-(1-((3-chloro-7-fluoro-6-(2-(2-hydroxypropan-2-yl)pyrimidin-5-yl)-1,5-naphthyridin-4-yl)amino)ethyl)-4-fluorobenzamide], for which the IC50 was under 1000 nM.

As for `Cc1nc2cc(F)c(-c3cnc(C(C)(C)O)nc3)nc2c(N[C@H](C)c2cc(C(N)=O)ccc2F)c1Cl` [Example 584, (R)-3-(1-((3-chloro-7-fluoro-6-(2-(2-hydroxypropan-2-yl)pyrimidin-5-yl)-2-methyl-1,5-naphthyridin-4-yl)amino)ethyl)-4-fluorobenzamide], the IC50 is under 1000 nM.

Turning to `C[C@@H](Nc1c(Cl)cnc2ccc(-c3cnc(NCC(N)=O)nc3)cc12)c1ccccc1F` [Example 585, (R)-2-((5-(3-chloro-4-((1-(2-fluorophenyl)ethyl)amino)quinolin-6-yl)pyrimidin-2-yl)amino)acetamide], the 50% inhibitory concentration (IC50) is 10000 to 25000 nM.

`C[C@@H](Nc1c(Cl)cnc2ccc(-c3cnc(NC4(C(N)=O)CC4)nc3)cc12)c1ccccc1F` [Example 587, (R)-1-((5-(3-chloro-4-((1-(2-fluorophenyl)ethyl)amino)quinolin-6-yl)pyrimidin-2-yl)amino)cyclopropane-1-carboxamide]: the IC50 was under 1000 nM.
